System: 843782-103-R-J1-PDC complex spheroid viability
Assay: Anticancer human tumor 843782-103-R-J1-PDC patient-derived lung adenocarcinoma cell line growth inhibition [RAS]
Conditions: for IC50: curve of first compound; for viability, T/C: stronger effect = lower value
Source text: RAS pathway inhibitors in Combinations in Complex Spheroids
A high-throughput screen of multi-cell type tumor spheroids was designed to identify active combinations of RAS pathway inhibitors and targeted small molecules. Complex spheroids include a stromal component modeled by human endothelial cells (HUVEC) and fibroblasts modeled by human mesenchymal stem cells (MSCs). The concentration ranges selected for each drug and investigational agent were based upon clinically achievable concentrations if the clinical Cmax of the agent was known.
Compounds. The drugs and investigational agents: abemaciclib (NSC768073), cobimetinib (NSC768068), divarasib (GDC6063, NSC841802), docetaxel (NSC628503), GDC-1971 (RLY-1971, NSC841576), gemcitabine (NSC613327), inavolisib (NSC800729), ipatasertib (NSC767898), KB-0742 (NSC834161), MRTX-1133 (NSC836407), osimertinib (NSC779217), RMC-4630 (NSC839698), RMC-6236 (NSC851965), RMC-6291 (NSC852671), Ro-3306 (NSC812927), sapanisertib (NSC764658), SN-38 (NSC673596), staurosporine (NSC755774), SY5609 (NSC837396), and tovorafenib (DAY101, NSC766906), were obtained from the National Cancer Institute (NCI) Developmental Therapeutics Program Chemical Repository. The FDA-approved anticancer drug set is available from the NCI Developmental Therapeutics Program. […] The stock solutions were prepared in dimethyl sulfoxide (DMSO, Sigma-Aldrich, St. Louis, MO, cat. D2650) at 800-fold the tested concentration and stored at -70 degrees C prior to their use. All drugs and investigational agents were tested over a range starting from a high concentration at or near the clinical Cmax and decreasing in half-log increments. If the clinical Cmax for an agent had not been determined, the highest concentration tested was 10 microM.
Cell Culture. All cells were maintained in an incubator at 37 degrees C and 5% CO2 with 95% humidity. The PDC lines were cultured according to standard operating procedures established by the NCI PDMR. All PDCs were thawed and cultured in Matrigel-coated flasks prepared with a working solution of 1X Ham's F-12 nutrient mix, without supplementation (Invitrogen, Waltham, MA, cat. 11765054), 100 U/mL penicillin-streptomycin (Invitrogen, cat. 15140122), and 2.5% Matrigel (Corning Inc., Corning, NY, cat. 354248) for the first three passages. The 362531-283-R-J2-PDC and 782815-120-R-J1-PDC lines were cultured in 6C/Colon 1B media, which includes advanced DMEM/F-12 (Thermo Fisher Scientific, cat. 12634028), 10 mM HEPES (Thermo Fisher Scientific, cat. 15630080), 1X GlutaMAX supplement (Thermo Fisher Scientific, cat. 35050061), 0.1 mg/mL primocin (InvivoGen, San Diego, CA, cat. ant-pm-2), 10% defined fetal bovine serum, heat inactivated (HyClone Laboratories Inc., Logan, UT, cat. SH30070.03HI), 50% L-WRN conditioned media (ATCC, cat. CRL-3276), 1.25 mM N-Acetyl-L-cysteine (Sigma-Aldrich, cat. A9165), 10 mM nicotinamide (Sigma-Aldrich, cat. N0636), 1X B-27 supplement (Thermo Fisher Scientific, cat. 17504044), 1X N-2 supplement (Thermo Fisher Scientific, cat. 17502048), 50 ng/mL human EGF (Thermo Fisher Scientific, cat. PHG0311), and 10 microM Y-27632 dihydrochloride (Tocris Bioscience, cat. 1254). The K12877-001-R-J1-PDC line was cultured in 6I media, which includes all 6C/Colon 1B media plus 10 ng/mL human FGF-10 (PeproTech, cat. 100-26), 1 ng/mL human FGF-2 (PeproTech, cat. 100-18B), 1 µM prostaglandin E2 (Tocris Bioscience, cat. 2296), […] hydrocortisone (Sigma-Aldrich, cat. H4001), and […] bovine insulin (Sigma-Aldrich, cat. I6634). The K86415-001-R-J1-PDC line was cultured in 6D media, which includes all 6C/Colon 1B media components minus the L-WRN conditioned media. The 485176-168-R4-J1-PDC was cultured in PANC media, which includes all 6C/Colon 1B media plus 100 ng/mL human FGF-10 (PeproTech, cat. 100-26), 500 nM SB-431542 (Selleckchem, cat. S1067), and 10 nM gastrin (Tocris Bioscience, cat. 3006). […]

[1] = second compound 0.000949 µM, first compound 0.0316 µM
[2] = second compound 0.000949 µM, first compound 0.1 µM
[3] = second compound 0.000949 µM, first compound 0.316 µM
[4] = second compound 0.000949 µM, first compound 1 µM
[5] = second compound 0.000949 µM, first compound 3.16 µM
[6] = second compound 0.000949 µM, first compound 10 µM
[7] = second compound 0.003 µM, first compound 0.0316 µM
[8] = second compound 0.003 µM, first compound 0.1 µM
[9] = second compound 0.003 µM, first compound 0.316 µM
[10] = second compound 0.003 µM, first compound 1 µM
[11] = second compound 0.003 µM, first compound 3.16 µM
[12] = second compound 0.003 µM, first compound 10 µM
[13] = second compound 0.00949 µM, first compound 0.0316 µM
[14] = second compound 0.00949 µM, first compound 0.1 µM
[15] = second compound 0.00949 µM, first compound 0.316 µM
[16] = second compound 0.00949 µM, first compound 1 µM
[17] = second compound 0.00949 µM, first compound 3.16 µM
[18] = second compound 0.00949 µM, first compound 10 µM
[19] = second compound 0.03 µM, first compound 0.0316 µM
[20] = second compound 0.03 µM, first compound 0.1 µM
[21] = second compound 0.03 µM, first compound 0.316 µM
[22] = second compound 0.03 µM, first compound 1 µM
[23] = second compound 0.03 µM, first compound 3.16 µM
[24] = second compound 0.03 µM, first compound 10 µM
[25] = second compound 0.0949 µM, first compound 0.0316 µM
[26] = second compound 0.0949 µM, first compound 0.1 µM
[27] = second compound 0.0949 µM, first compound 0.316 µM
[28] = second compound 0.0949 µM, first compound 1 µM
[29] = second compound 0.0949 µM, first compound 3.16 µM
[30] = second compound 0.0949 µM, first compound 10 µM
[31] = second compound 0.3 µM, first compound 0.0316 µM
[32] = second compound 0.3 µM, first compound 0.1 µM
[33] = second compound 0.3 µM, first compound 0.316 µM
[34] = second compound 0.3 µM, first compound 1 µM
[35] = second compound 0.3 µM, first compound 3.16 µM
[36] = second compound 0.3 µM, first compound 10 µM
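Note: viability read after seven days of compound exposure.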

CC(C)NCC(C(=O)N1CCN(c2ncnc3c2C(C)CC3O)CC1)c1ccc(Cl)cc1 (centres undefined) + CCn1c(-c2cc(N3CCN(C)CC3)cnc2C(C)OC)c2c3cc(ccc31)-c1csc(n1)CC(NC(=O)C1CC1C)C(=O)N1CCCC(N1)C(=O)OCC(C)(C)C2 gave an IC50 (second compound 0.000949 µM) of 511 nM, an IC50 (second compound 0.003 µM) of 242 nM and an IC50 (second compound 0.00949 µM) of less than 31.6 nM. For the same compound, the IC50 (second compound 0.03 µM) was less than 31.6 nM, the IC50 (second compound 0.0949 µM) was less than 31.6 nM and the IC50 (second compound 0.3 µM) was less than 31.6 nM. The viability, T/C [1] was 80.6%, the viability, T/C [2] was 73.9% and the viability, T/C [3] was 64.6%. It also gave a viability, T/C [4] of 30.4%, a viability, T/C [5] of 14.7% and a viability, T/C [6] of 6.49%. The viability, T/C [7] was 62.2%, the viability, T/C [8] was 63.7% and the viability, T/C [9] was 44.8%. It also gave a viability, T/C [10] of 25.8%, a viability, T/C [11] of 10.7% and a viability, T/C [12] of 5.07%. The viability, T/C [13] was 39.6%, the viability, T/C [14] was 38% and the viability, T/C [15] was 24.9%. The viability, T/C [16] was 15%, the viability, T/C [17] was 8.4% and the viability, T/C [18] was 4.07%. It also gave a viability, T/C [19] of 22.4%, a viability, T/C [20] of 25% and a viability, T/C [21] of 16.6%. For the same compound, the viability, T/C [22] was 9.92%, the viability, T/C [23] was 7.32% and the viability, T/C [24] was 2.47%. For the same compound, the viability, T/C [25] was 16.7%, the viability, T/C [26] was 18% and the viability, T/C [27] was 13.8%. It also gave a viability, T/C [28] of 8.39%, a viability, T/C [29] of 5.39% and a viability, T/C [30] of 2.13%. The viability, T/C [31] was 18%, the viability, T/C [32] was 14% and the viability, T/C [33] was 12.4%. It also gave a viability, T/C [34] of 7.41%, a viability, T/C [35] of 3.93% and a viability, T/C [36] of 1.56%.

Compound CCC(CC)c1cc(NC2CCC(N)C2)n2nccc2n1 (centres undefined) + CCn1c(-c2cc(N3CCN(C)CC3)cnc2C(C)OC)c2c3cc(ccc31)-c1csc(n1)CC(NC(=O)C1CC1C)C(=O)N1CCCC(N1)C(=O)OCC(C)(C)C2 has an IC50 (second compound 0.000949 µM) of 591 nM, an IC50 (second compound 0.003 µM) of 406 nM and an IC50 (second compound 0.00949 µM) of less than 31.6 nM. It also gave an IC50 (second compound 0.03 µM) of less than 31.6 nM, an IC50 (second compound 0.0949 µM) of less than 31.6 nM and an IC50 (second compound 0.3 µM) of less than 31.6 nM. The viability, T/C [1] was 75.2%, the viability, T/C [2] was 76.5% and the viability, T/C [3] was 72.7%. It also gave a viability, T/C [4] of 30.7%, a viability, T/C [5] of 0.47% and a viability, T/C [6] of 0.37%. For the same compound, the viability, T/C [7] was 53.5%, the viability, T/C [8] was 53.9% and the viability, T/C [9] was 58.1%. It also gave a viability, T/C [10] of 31.4%, a viability, T/C [11] of 0.26% and a viability, T/C [12] of 0.35%. For the same compound, the viability, T/C [13] was 30.6%, the viability, T/C [14] was 34.3% and the viability, T/C [15] was 36.8%. The viability, T/C [16] was 17.1%, the viability, T/C [17] was 0.17% and the viability, T/C [18] was 0.29%. For the same compound, the viability, T/C [19] was 21.9%, the viability, T/C [20] was 19% and the viability, T/C [21] was 21.2%. It also gave a viability, T/C [22] of 15.5%, a viability, T/C [23] of 0.09% and a viability, T/C [24] of 0.27%. It also gave a viability, T/C [25] of 15.7%, a viability, T/C [26] of 15% and a viability, T/C [27] of 16.8%. For the same compound, the viability, T/C [28] was 14.7%, the viability, T/C [29] was 0.52% and the viability, T/C [30] was 0.34%. The viability, T/C [31] was 15%, the viability, T/C [32] was 14.2% and the viability, T/C [33] was 14.8%. The viability, T/C [34] was 13.4%, the viability, T/C [35] was 0.25% and the viability, T/C [36] was 0.53%.
